In general, melting point refers to the temperature of the solid-liquid transition. Take `O=C(Cl)c1ccc(-c2ccco2)s1`: the melting point came out at 83 °C.

Consider `O=C=Nc1cccc2nsnc12`, for which the melting point is 81 to 82 °C.

Turning to `C=C(C)CCCCCCCCCCCCCC`, the melting point was determined as 2 °C.

For `CCCCCCCCCCCCC#N`, the melting point was found to be 9.7 °C.

The compound `Cc1cccc(C)c1NC(=O)c1cnc(C(C)(C)C)c(Cl)n1` gave a melting point of 146 °C.

Turning to `Nc1c(F)cc(Br)cc1F`, the melting point was 67 to 68 °C.

On to `O=S(=O)(Cl)c1ccc(-c2ccc(Cl)c(Cl)c2)cc1`, for which the melting point lay within 105 to 106 °C.

`COc1cc(-c2nnc3n2N=C(c2ccccc2)CS3)cc(OC)c1OC` had a melting point of 197 °C.

`CSc1nc(N)nc(C2CC2)n1` yielded a melting point of 157 to 159 °C.

The compound `COC(=O)c1ccc(N)nc1` showed a melting point of 159 to 160 °C.

With `Nc1ccc(Cl)cc1N`, the melting point stood at 76 °C.

`COc1ccc(NN=C2C(=O)NC(=S)NC2=O)cc1` yielded a melting point of 246 °C.

`Nc1ccc(C(=O)Oc2ccccc2)c(O)c1` returned a melting point of 153 °C.

For `O=c1c(O)c(-c2ccc(O)c(O)c2)oc2cc(O)ccc12`, the melting point turned out to be 330 °C.

`CC(=O)C(C(=O)OC1CC(C)CCC1C(C)C)C(C)C(C(C)=O)/C(=N\NC(N)=O)OC1CC(C)CCC1C(C)C` (configuration not stated) gave a melting point of 200 °C.

In turn, `O=C1CN(N=Cc2ccc([N+](=O)[O-])o2)C(=O)N1CN1CCOCC1` registered a melting point of 206 °C.

`Cc1cc(Cl)ccc1OC(C)C(=O)Nc1ccc2nc(SCc3ccccc3)sc2c1` (configuration not stated): the melting point was 168 °C.

Take `c1ccc(N=NNc2ccccc2)cc1`: the melting point was 98 °C.

`CC(=O)CS(=O)(=O)c1ccccc1`: the melting point was 55 to 59 °C.

Consider `CC(C)(C)C(=O)CCl`, for which the melting point was -1 °C.

The compound `O=c1cc[nH]c(=O)o1` had a melting point of 156 °C.

Compound `O=[N+]([O-])C(CO)(CO)CO` gave a melting point of 214 °C.

`C[C@]12CC[C@@H](O)[C@H](O)[C@@H]1CC[C@@H]1[C@@H]2CC[C@]2(C)C(=O)CC[C@@H]12` showed a melting point of 233 °C.

Take `CC(=O)Oc1cc(OC(C)=O)cc(C(=O)O)c1`: the melting point was 159 °C.

With `Cc1nc(COc2ccc(C(N)=NO)cc2)cs1`, the melting point was in the range of 193 to 194 °C.

Take `O=c1ccc([N+](=O)[O-])cn1Cc1ccccc1`: the melting point is 96 °C.

The compound `Clc1cccc(C(Cl)(Cl)Cl)n1` returned a melting point of 63 °C.

On to `Nc1ncccc1I`, for which the melting point was 90 °C.

Turning to `COc1cc(Cl)c(Cl)cc1OC`, the melting point amounted to 83 °C.

`Nc1ccccc1S` came in with a melting point of 26 °C.

`Cn1c2c(c3ccccc31)CCCC2`: the melting point was 52 °C.

With `O=C(Oc1c(F)c(F)c(F)c(F)c1F)c1cccc(-c2nccs2)c1`, the melting point was 68.5 to 69.5 °C.

`O=C(O)c1ncoc1-c1ccccc1` showed a melting point of 181 °C.

`O=Cc1ccccc1-c1cccnc1`: the melting point was in the range of 68 to 69 °C.

Compound `CC(=O)NC(C)c1ccccc1` (configuration not stated) registered a melting point of 102 to 103 °C.

Take `Nc1cccc(-n2ccccc2=O)c1`: the melting point came out at 182 °C.

Take `O=C(NCCCCc1ccccc1)c1cc([N+](=O)[O-])cc([N+](=O)[O-])c1`: the melting point fell in the range of 165 to 167 °C.

On to `Cc1nn(C)c(Oc2ccccc2)c1C=NOCc1ccc(C(=O)OC(C)(C)C)cc1`, for which the melting point was determined as 102 °C.

Take `CC1(c2ccccc2)OC(C(=O)O)=CC1=O` (configuration not stated): the melting point came to 176 °C.

`Cc1ccc(Oc2ccc([N+](=O)[O-])cc2)cc1` gave a melting point of 69 °C.

As to `S=C(SC(=S)N1CCCCC1)N1CCCCC1`, the melting point turned out to be 110 °C.

On to `COC(=O)c1sccc1S(=O)(=O)Cl`, for which the melting point was in the range of 62 to 66 °C.

On to `CN(C)c1ccc(C=C2SC(=S)NC2=O)cc1`, for which the melting point lay within 285 to 288 °C.

For `C=C(C)CCCCCCCCC`, the melting point is -40 °C.

`Oc1ccnc2c(C(F)(F)F)cccc12` displayed a melting point of 172 °C.

`Cc1ccc2nc(-c3ccc(N)cc3)sc2c1` came in with a melting point of 195 °C.

`CCCCCNCCCCC`: the melting point is -7.85 °C.

Turning to `CC1=CP(=O)(c2ccccc2)CC1` (configuration not stated), the melting point lay within 58 to 62 °C.

`COC(=O)c1ccnnc1` yielded a melting point of 66 °C.

`Cc1cc(C)c(CC(=O)CSC#N)c(C)c1` yielded a melting point of 125 to 126 °C.

In turn, `O=[N+]([O-])c1cc(Cl)ccc1S(=O)(=O)c1ccccc1` came in with a melting point of 115 to 117 °C.

Turning to `CCC(O)(CC)C1(C)CCC(C(=O)OC)C(C)(C)O1` (configuration not stated), the melting point was 162 °C.

`O=C1C(=Cc2ccc(N(CCCl)CCCl)cc2)SC(=S)N1CN(CCCl)CCCl` came in with a melting point of 106 °C.

`COc1ccc(OC)c(N=C=O)c1` registered a melting point of 40 °C.

`CC(C)(C)C(=O)OCC(=O)C1(O)CCC2C3CCC4=CC(=O)C=CC4(C)C3C(O)CC21C` (configuration not stated) returned a melting point of 233 °C.

Turning to `CSc1nc(N)c(C(=O)c2ccccc2)s1`, the melting point lay within 126 to 127 °C.

In turn, `CC(=O)N1CCc2ccc(N)cc21` showed a melting point of 182 to 185 °C.

Regarding `CC(C)(C)n1nc(-c2ccc(Cl)cc2)c(C#N)c1N`, the melting point fell in the range of 154 to 155 °C.

`COC(=O)c1scc(C#N)c1N` returned a melting point of 149 to 150 °C.

For `COc1ccccc1C1CCN(c2ccc(C=CC(=O)O)cc2[N+](=O)[O-])CC1`, the melting point lay in the range of 204 to 206 °C.

Regarding `NC(CS(=O)(=O)Cc1ccc(F)cc1)=NO`, the melting point was in the range of 182 to 185 °C.

With `CSC(S)=Nc1ccc(C)cc1`, the melting point was in the range of 175 to 176 °C.

In the case of `CCOc1ccc(C(=O)O)cc1`, the melting point amounted to 198 °C.

Regarding `NC(CCP(=O)(O)O)C(=O)O` (racemic), the melting point is 225 to 228 °C.

On to `O=C(CBr)c1cccc2c1OCCCO2`, for which the melting point lay in the range of 55 to 56 °C.

`O=C(CCCN1CCN(c2ccccn2)CC1)c1ccc(F)cc1` displayed a melting point of 92 °C.

`COC(=O)c1cc(C)n(C)c1C`: the melting point is 117 °C.

Compound `CC(=O)Oc1c(-c2ccccc2)[nH]c2cc([N+](=O)[O-])c(/C=C/c3ccccc3)cc12` yielded a melting point of 224 °C.

`CCCCCC(O)CCCC` (configuration not stated) showed a melting point of 8 °C.

As for `CC(=O)Oc1c(-c2ccccc2)[nH]c2ccccc12`, the melting point was determined as 107 °C.

In turn, `COC(=O)c1cnc(SC)nc1` registered a melting point of 96 to 97 °C.

Turning to `CCOP(=S)(Oc1ccc(C#N)cc1)c1ccccc1` (configuration not stated), the melting point was 83 °C.

`NCCCP(=O)(O)O` gave a melting point of 290 to 294 °C.

For the compound `COC(=O)c1ccccc1S(=O)(=O)NC(=O)Nc1nc(C)cc(C)n1`, the melting point amounted to 204 °C.

In turn, `CCOC(=O)NC1C(N(C)C)C2CCC1(C)C2(C)C` (configuration not stated) yielded a melting point of 237 °C.

`CCNc1nc(Cl)nc(NCC(=O)OCC)n1` displayed a melting point of 228 °C.

As to `Clc1nsc2ccccc12`, the melting point worked out at 39 °C.

Compound `OCc1ccnc(Cl)c1` gave a melting point of 65.5 to 67.5 °C.

In turn, `CN1CCC23c4c5ccc(O)c4OC2C(=O)CCC3(O)C1C5` (configuration not stated) yielded a melting point of 248 °C.

`CS(=O)c1cccc(CC(=O)O)c1` (configuration not stated) returned a melting point of 111 °C.

Take `CCC1CC(NC(=O)CBr)C(C)(C)N1O` (configuration not stated): the melting point is 148 to 150 °C.

In turn, `COc1ccc(CBr)cc1C(F)(F)F` returned a melting point of 77 °C.

The compound `O=C(O)CSCCOc1ccccc1` showed a melting point of 49 to 52 °C.

Regarding `CC=CCCCCC`, the melting point was -80 °C.

Turning to `COC(=O)c1c(C)c2c(c(C(=O)OC)c1C)CC2=O`, the melting point is 117 °C.

With `CSC(=NC#N)SC`, the melting point was 54 °C.

Compound `Cc1nc(-c2ccccc2)sc1C(=O)O` showed a melting point of 214 to 215 °C.

For the compound `O=C(Nc1nc2ccccc2s1)C(C(F)(F)F)C(F)(F)F`, the melting point is 174 °C.

On to `Cc1nccnc1C`, for which the melting point was in the range of 11 to 13 °C.

The compound `COc1ccc(O)c2ccccc12` showed a melting point of 129 °C.

`COc1ccc2c(c1)C(=O)CC2` showed a melting point of 107 to 111 °C.

As for `CN1CCc2cc3c(cc2C1C1OC(=O)c2c1ccc1c2OCO1)OCO3` (configuration not stated), the melting point was determined as 194 °C.

Consider `Cc1occc1C(=O)O`, for which the melting point lay within 102 to 105 °C.

With `CC(CCC(=O)O)C1CCC2C3CCC4CCCCC4(C)C3CC(O)C12C` (configuration not stated), the melting point fell in the range of 186 to 188 °C.

With `CSC(=CC(=C(C#N)C#N)c1ccc(Br)cc1)SC`, the melting point was 138 to 142 °C.

Regarding `O=C1/C(=C/c2ccc([N+](=O)[O-])cc2)SC(=S)N1CN1CCCCC1`, the melting point was 160 °C.

`O=C1CC2CCC1C2` (configuration not stated) registered a melting point of 95 °C.

With `c1ccc(-c2nnc(NC3=NCCN3)s2)cc1`, the melting point fell in the range of 192 to 194 °C.

`CC1(C)OC2CC3C4CC(F)C5=CC(=O)C=CC5(C)C4(F)C(O)CC3(C)C2(C(=O)CO)O1` (configuration not stated) showed a melting point of 266 °C.

On to `CC(=O)c1ccccc1C(C)=O`, for which the melting point came out at 40 °C.

Compound `Cn1nc(-c2cccs2)cc1C(=O)O` returned a melting point of 173 to 174 °C.

Compound `O=C(O)C1CC1C(=O)Nc1ccc(Cl)cc1Cl` (configuration not stated) showed a melting point of 196 °C.

The compound `CC(=O)c1cn(C)c2ccccc12` came in with a melting point of 107 °C.

As for `O=C(NNC(=S)NCc1ccccc1)C(=O)c1c[nH]c2ccccc12`, the melting point was found to be 243 °C.

`Nc1ccc(OC(F)(F)F)c(Cl)c1` had a melting point of 30 °C.

In turn, `C=C1C(=O)C23C(OC)CC4C5(C)CCCC4(COC5OC(C)=O)C2C(OC(C)=O)CC1C3OC(C)=O` (configuration not stated) showed a melting point of 214 °C.

On to `CC1=CC(C)N=N1` (configuration not stated), for which the melting point amounted to 108 °C.

`COC1=CC2C3Cc4ccc(OC)c(O)c4C2(CCN3C)CC1=O` (configuration not stated) showed a melting point of 162 °C.

`CC(=O)Oc1ccc2c3c1OC1C(OC(C)=O)C=CC4C(C2)N(C)CCC341` (configuration not stated) came in with a melting point of 173 °C.

In turn, `COc1ccc(C=O)cc1O` gave a melting point of 114 °C.

The compound `COc1ccc(C(C)=O)cc1F` gave a melting point of 92 °C.

As to `COc1ccc(NN=C2C(=O)NC(=O)NC2=O)cc1`, the melting point worked out at 264 °C.
